{
  "source": "patent US20130338183A1",
  "about": "“COMPOSITIONS AND METHODS FOR MOBILIZING STEM CELLS” (The Johns Hopkins University, priority 2010, published 2013)",
  "system": "Lin-CD133+ cells in peripheral blood",
  "assay": "Mobilization of bone marrow stem cells: Lin-CD133+ cells in peripheral blood by CBC and flow cytometry after subcutaneous injection",
  "assay_type": "in vivo",
  "conditions": "low dose FK-506 (0.05 mg/kg, 0.1 mg/kg) subcutaneous, 3 hours after injection, Lewis rats",
  "excerpt": "Rat Strains and Care. Lewis (RT1^1) rats were purchased from Harlan ague-Dawley (Indianapolis, Ind.) and used at 8-10 weeks of age. Animals were maintained in the specific pathogen-free facility of Johns Hopkins Medical Institutions. Animals were cared for according to NIH guidelines and under a protocol approved by the Johns Hopkins University Animal Care Committee.\nExperimental Groups and Animal Treatment. Lewis rats were divided by six groups including control group (treated with same volume of saline) and low dose of FK-506 (0.05 mg, 0.1 mg or 1.0 mg/kg). FK506 was injected subcutaneously. Animals were sacrificed at 3 hours after injection. Spleen and peripheral blood were collected. Blood cell count was performed in animal pathology laboratory at Johns Hopkins.\nFlow Cytometry. Single-cell suspensions (5×10^5) of peripheral blood monocytes were analyzed for lineage negative and CD133 expression. Nonspecific antibody binding was blocked with goat and rat serum (Sigma) for 30 minutes.\nIn this study, lineage negative (Lin−) CD133+ stem cell population in peripheral blood and spleen were quantified after FK-506 treatment. Complete blood count (CBC) was measured and stem cell markers were quantified by flow cytometry. The absolute number of stem cells was calculated as WBC (−thous./uL)×% of stem cells.",
  "data": [
    {"smiles": "C=CC[C@@H]1/C=C(\\C)C[C@H](C)C[C@H](OC)[C@H]2O[C@@](O)(C(=O)C(=O)N3CCCC[C@H]3C(=O)O[C@H](/C(C)=C/[C@@H]3CC[C@@H](O)[C@H](OC)C3)[C@H](C)[C@@H](O)CC1=O)[C@H](C)C[C@@H]2OC", "note": "[FK-506, Tacrolimus]", "values": [
      {"measurement": "increase of absolute number of Lin-CD133+ cells in peripheral blood compared to saline treated animals", "result": "about 3 times"}
    ]}
  ]
}
